Earlier results, collected in patent publication US20140221306A1 (Santen Pharmaceutical Co. Ltd, priority 2010, published 2014).

Tests used:
[1] = disclosed in Japanese Patent No. 3652707 (PTD 1)
dry eye patients = settings: instillation of an ophthalmic solution; Cornea, 23(8), 784-792 (2004)

SMILES | effect on secretion of tears [1] | corneal epithelium disorder of dry eye patients (dry eye patients)
O=c1ccn([C@@H]2O[C@H](COP(=O)(O)OP(=O)(O)OP(=O)(O)OP(=O)(O)OC[C@H]3O[C@@H](n4ccc(=O)[nH]c4=O)C(O)C3O)C(O)C2O)c(=O)[nH]1 (some centres unmarked) [Diquafosol, P^1,P^4-di(uridine-5′)tetraphosphate] | effect of stimulating secretion of tears | –
O=c1ccn([C@@H]2O[C@H](COP(=O)([O-])OP(=O)([O-])OP(=O)([O-])OP(=O)([O-])OC[C@H]3O[C@@H](n4ccc(=O)[nH]c4=O)[C@H](O)[C@@H]3O)[C@@H](O)[C@H]2O)c(=O)[nH]1.[Na+].[Na+].[Na+].[Na+] [diquafosol tetrasodium salt] | – | improved corneal epithelium disorder
